Assay results: patent US9238039B2, “Pyrazolo[1,5-A]pyrimidines for antiviral treatment” (Gilead Sciences, Inc., priority 2010, dated 2016)

System: RSV strain A2
Assay: RSV antiviral cytoprotection assay in Hep2 cells (96-well and 384-well format, Cell TiterGlo read-out)
Type: cell-based, Respiratory Syncytial Virus (RSV)
Conditions: for inhibition at 0.5 µM: HEp-2, 0.5 uM; for EC50: Hep2 cells, class symbols
[1] = human respiratory syncytial virus, RSV-induced cytopathic effect in Hep2 cells, calculated from fitted dose response curve, normalized to 0% and 100%
[2] = human respiratory syncytial virus, HEp-2, RSV-induced cytopathic effects

Compound	inhibition at 0.5 µM [1]	EC50 [2]	% inh @ 0.5 uM (0.5 uM, RSV-induced cytopathic effect in Hep2 cells, calculated from fitted dose response curve, normalized to 0% and 100%)	EC50 (RSV-induced cytopathic effects)
Cc1cn2nc([C@@H]3CCCCN3C(=O)c3cc(Cl)ccc3NS(C)(=O)=O)cc2nc1N1CC[C@@H](CN)C1 [Compound 151]	99%	0.1 to 100 nM	–	–
Cc1cn2nc([C@@H]3CCCCN3C(=O)c3ccc(F)c(C)c3Cl)cc2nc1N1CC[C@H](N)C1 [Compound 380]	80%	101 to 1000 nM	–	–
Cc1cc(C)n2ncc(C(=O)N3CCCC[C@H]3c3cc4nc(N5CC[C@H](N)C5)c(C)cn4n3)c2n1 [Compound 394]	100%	0.1 to 100 nM	–	–
Cc1ccnc(C(=O)N2CCCC[C@H]2c2cc3nc(N4CC[C@H](N)C4)c(C)cn3n2)c1 [Compound 272]	100%	0.1 to 100 nM	–	–
CS(=O)(=O)Nc1ccc(Cl)cc1C(=O)N1CCCC[C@H]1c1cc2nc(N3CCC3)cc(N3CCOC3)n2n1 [Compound 74]	100%	0.1 to 100 nM	–	–
CS(=O)(=O)Nc1ccc(Cl)cc1C(=O)N1CCCC[C@H]1c1cc2nc(N3CCC3)cc(CO)n2n1 [Compound 254]	90%	0.1 to 100 nM	–	–
Cc1cn2nc([C@@H]3CCCCN3C(=O)c3ocnc3C)cc2nc1N1CC[C@H](N)C1 [Compound 265]	100%	0.1 to 100 nM	–	–
Cc1cn2nc([C@@H]3CCCCN3C(=O)c3cccc(C(C)C#N)c3)cc2nc1N1CC[C@H](N)C1 (some centres unmarked) [Compound 351]	100%	0.1 to 100 nM	–	–
CCOc1cccc(C(=O)N2CCCC[C@H]2c2cc3nc(N4CC[C@H](N)C4)c(C)cn3n2)c1 [Compound 319]	100%	0.1 to 100 nM	–	–
Cc1cn2nc([C@@H]3CCCCN3C(=O)c3cncc(Cl)c3)cc2nc1N1CC[C@H](N)C1 [Compound 306]	100%	0.1 to 100 nM	–	–
Cc1cn2nc([C@@H]3CCCCN3C(=O)c3cccc(F)c3F)cc2nc1N1CC[C@H](N)C1 [Compound 307]	100%	0.1 to 100 nM	–	–
CS(=O)(=O)Nc1ccc(Cl)cc1C(=O)N1CCCC[C@H]1c1cc2nc(N3CC(O)C3)ccn2n1 [Compound 49]	98%	0.1 to 100 nM	–	–
C#Cc1cccc(C(=O)N2CCCC[C@H]2c2cc3nc(N4CC[C@H](N)C4)c(C)cn3n2)c1 [Compound 289]	100%	0.1 to 100 nM	–	–
CS(=O)(=O)Nc1ccc(Cl)cc1C(=O)N1CCCC[C@H]1c1cc2nc(N3CCC3)cc(N3CCC(O)CC3)n2n1 [Compound 44]	100%	0.1 to 100 nM	–	–
Cc1ccc(NS(C)(=O)=O)c(C(=O)N2CCCC(C)C2c2cc3[nH]c(C)c(C)c(=O)n3n2)c1 (centres unmarked) [Compound 37]	–	–	100%	0.1 to 100 nM
CS(=O)(=O)Nc1ccc(Cl)cc1C(=O)N1CCCC[C@H]1c1cc2nc(N3CCCO3)cc(N3CCOCC3)n2n1 [Compound 70]	99%	0.1 to 100 nM	–	–
COc1cccc(C(=O)N2CCCC[C@H]2c2cc3nc(N4CC[C@H](N)C4)c(C)cn3n2)c1O [Compound 325]	98%	0.1 to 100 nM	–	–
Cc1cn2nc([C@@H]3CCCCN3C(=O)c3cc(Cl)ccc3NC(=O)OC(C)C)cc2nc1N1CC[C@H](N)C1 [Compound 249]	86%	0.1 to 100 nM	–	–
Cc1ccc(C(=O)N2CCCC[C@H]2c2cc3nc(N4CC[C@H](N)C4)c(C)cn3n2)cc1O [Compound 294]	14%	1000 to 10000 nM	–	–
Cc1cn2nc([C@@H]3CCCCN3C(=O)c3ccc(C(N)=O)s3)cc2nc1N1CC[C@H](N)C1 [Compound 336]	78%	101 to 1000 nM	–	–
CS(=O)(=O)Nc1ccc(Cl)cc1C(=O)N1CCCC[C@H]1c1cc2nc(N3CCC3)cc(N3CCCCN3)n2n1 [Compound 252]	92%	0.1 to 100 nM	–	–
Cc1cn2nc([C@@H]3CCCCN3C(=O)c3cc(Cl)ccc3NS(C)(=O)=O)cc2nc1N(C)CCO [Compound 150]	97%	0.1 to 100 nM	–	–
Cc1cn2nc([C@@H]3CCCCN3C(=O)c3cc(C(F)(F)F)n(C)n3)cc2nc1N1CC[C@H](N)C1 [Compound 400]	100%	0.1 to 100 nM	–	–
Cc1cc(Cl)ccc1C(=O)N1CCCC[C@H]1c1cc2nc(N3CC[C@H](N)C3)c(C)cn2n1 [Compound 333]	99%	0.1 to 100 nM	–	–
CS(=O)(=O)Nc1ccc(Cl)cc1C(=O)N1CCCC[C@H]1c1cc2nc(N3CCC3)cc(N3C[C@H]4C[C@@H]3CN4)n2n1 [Compound 147]	98%	0.1 to 100 nM	–	–

Compound	inhibition at 0.5 µM [1]	EC50 [2]	% inh @ 0.5 uM (0.5 uM, RSV-induced cytopathic effect in Hep2 cells, calculated from fitted dose response curve, normalized to 0% and 100%)	EC50 (RSV-induced cytopathic effects)
Cc1cn2nc([C@@H]3CCCCN3C(=O)c3ccnn3C)cc2nc1N1CC[C@H](N)C1 [Compound 263]	99%	0.1 to 100 nM	–	–
Cc1cn2nc([C@@H]3CCCCN3C(=O)c3ccc(OC(F)F)cc3)cc2nc1N1CC[C@H](N)C1 [Compound 378]	48%	101 to 1000 nM	–	–
CNC1CCN(c2nc3cc([C@@H]4CCCCN4C(=O)c4cc(Cl)ccc4NS(C)(=O)=O)nn3cc2C)C1 (some centres unmarked) [Compound 78]	98%	0.1 to 100 nM	–	–
Cc1cn2nc([C@@H]3CCCCN3C(=O)c3cc(O)ccc3Cl)cc2nc1N1CC[C@H](N)C1 [Compound 339]	99%	0.1 to 100 nM	–	–
Cc1cn2nc([C@@H]3CCCCN3C(=O)c3cc(Cl)ccc3NS(C)(=O)=O)cc2nc1N1CC(=O)C1 [Compound 170]	100%	0.1 to 100 nM	–	–
Cc1cn2nc([C@@H]3CCCCN3C(=O)c3csc4c3CCCC4)cc2nc1N1CC[C@H](N)C1 [Compound 369]	91%	0.1 to 100 nM	–	–
CC(=O)Nc1ccc(C)cc1C(=O)N1CCCC[C@H]1c1cc2nc(N3CC[C@H](N)C3)c(C)cn2n1 [Compound 169]	100%	0.1 to 100 nM	–	–
Cc1cc(C2CC2)nc2cc([C@@H]3CCCCN3C(=O)C(NS(C)(=O)=O)c3ccccc3)nn12 (some centres unmarked) [Compound 241]	99%	0.1 to 100 nM	–	–
Cc1cc(N2CC[C@@H](O)C2)nc2cc([C@@H]3CCCCN3C(=O)c3cc(Cl)ccc3NS(C)(=O)=O)nn12 [Compound 48]	99%	0.1 to 100 nM	–	–
Cc1cc(Cl)cc(C(=O)N2CCCC[C@H]2c2cc3[nH]c(C)c(C)c(=O)n3n2)c1NS(C)(=O)=O [Compound 120]	100%	0.1 to 100 nM	–	–
CS(=O)(=O)Nc1ccc(Cl)cc1C(=O)N1CCCC[C@H]1c1cc2nc(N3CC(O)C3)cc(N3CC(N)C3)n2n1 [Compound 130]	100%	0.1 to 100 nM	–	–
Cc1cn2nc([C@@H]3CCCCN3C(=O)c3ccc(F)c(F)c3O)cc2nc1N1CC[C@H](N)C1 [Compound 346]	100%	0.1 to 100 nM	–	–
Cc1cn2nc([C@@H]3CCCCN3C(=O)c3cc(Cl)cnc3O)cc2nc1N1CC[C@H](N)C1 [Compound 345]	100%	0.1 to 100 nM	–	–
CCc1ccc(NS(C)(=O)=O)c(C(=O)N2CCCC[C@H]2c2cc3nc(C4CC4)cc(C)n3n2)c1 [Compound 115]	100%	0.1 to 100 nM	–	–
Cc1cn2nc([C@@H]3CCCCN3C(=O)c3cccc(-n4cnnc4)n3)cc2nc1N1CC[C@H](N)C1 [Compound 389]	98%	0.1 to 100 nM	–	–
Cc1cc(C2CC2)nc2cc([C@@H]3CCCCN3C(=O)c3cc(N)ccc3NS(C)(=O)=O)nn12 [Compound 114]	100%	0.1 to 100 nM	–	–
Cc1cn2nc([C@@H]3CCCCN3C(=O)c3sccc3Cl)cc2nc1N1CC[C@H](N)C1 [Compound 314]	100%	0.1 to 100 nM	–	–
Cc1cccc(C(=O)N2CCCC[C@H]2c2cc3nc(N4CC[C@H](N)C4)c(C)cn3n2)n1 [Compound 273]	100%	0.1 to 100 nM	–	–
CS(=O)(=O)Nc1ccc(Cl)cc1C(=O)N1CCCC[C@H]1c1cc2nc(N3CC[C@@H](O)C3)cc(N3CCOCC3)n2n1 [Compound 71]	95%	0.1 to 100 nM	–	–
Cc1cn2nc([C@@H]3CCCCN3C(=O)c3cc(Cl)ccc3NS(C)(=O)=O)cc2nc1N1CCC(c2ccccn2)C1 (some centres unmarked) [Compound 209]	88%	101 to 1000 nM	–	–
COC1CN(c2nc3cc([C@@H]4CCCCN4C(=O)c4cc(Cl)ccc4NS(C)(=O)=O)nn3cc2C)CC1N (some centres unmarked) [Compound 167]	100%	0.1 to 100 nM	–	–
Cc1cn2nc([C@@H]3CCCCN3C(=O)c3cc(Cl)ccc3NS(C)(=O)=O)cc2nc1N1C[C@@H](N)C2(CC2)C1 [Compound 201]	64%	101 to 1000 nM	–	–
Cc1cn2nc([C@@H]3CCCCN3C(=O)c3csnn3)cc2nc1N1CC[C@H](N)C1 [Compound 271]	97%	0.1 to 100 nM	–	–
Cc1cn2nc([C@@H]3CC[C@H](C)CN3C(=O)c3cc(Cl)ccc3NS(C)(=O)=O)cc2nc1N1CC[C@@H](O)C1 [Compound 136]	100%	0.1 to 100 nM	–	–
